Experimental data published in ChEMBL document CHEMBL1201862, “PubChem BioAssay data set” (2004).
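Each compound was tested at five concentrations against cells in 96-well plates for 48 hours. At the GI50, growth is halved.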 Calls of active or inactive are those of the source. No stated cut-off is given here; in the data, active = GI50 up to about 1.1 µM and inactive = higher.

How the values were obtained:
Assay in all cases: growth of human tumour cells (NCI), 48 h
Malme-3M = tested on: Malme-3M
HCT-15 = tested on: HCT-15
DLD-1 = tested on: DLD-1
IGROV-1 = tested on: IGROV-1
OVCAR-4 = tested on: OVCAR-4
MCF7 = tested on: MCF7
RXF 393 = tested on: RXF 393
UACC-62 = tested on: UACC-62
SK-MEL-28 = tested on: SK-MEL-28
SF-295 = tested on: SF-295
NCI-H522 = tested on: NCI-H522
SNB-78 = tested on: SNB-78
RPMI-8226 = tested on: RPMI-8226
NCI-H460 = tested on: NCI-H460
HOP-92 = tested on: HOP-92
K562 = tested on: K562
EKVX = tested on: EKVX
MOLT-4 = tested on: MOLT-4
ACHN = tested on: ACHN
SR = tested on: SR

Nc1ccn(C2OC(CO)C(O)C2O)c(=O)c1 (centres undefined)
GI50 (Malme-3M): 114 µM (inactive) | GI50 (HCT-15): > 625 µM | GI50 (DLD-1): 513 µM (inactive) | GI50 (IGROV-1): > 625 µM (inactive) | GI50 (OVCAR-4): 285 µM (inactive) | GI50 (MCF7): 188 µM (inactive) | GI50 (RXF 393): 348 µM (inactive) | GI50 (UACC-62): 337 µM (inactive) | GI50 (SK-MEL-28): > 625 µM (inactive) | GI50 (SF-295): > 625 µM (inactive) | GI50 (NCI-H522): > 625 µM (inactive) | GI50 (SNB-78): > 625 µM (inactive) | GI50 (RPMI-8226): 174 µM (inactive) | GI50 (NCI-H460): 38.7 µM (inactive) | GI50 (HOP-92): 279 µM (inactive)

COC1=C(C)C(=O)C2=C(C1=O)[C@@H]1[C@@H]3Cc4c(OC(=O)CO)c(C)c(OC)c(O)c4[C@H](CNC(=O)C(C)=O)N3[C@@H](C#N)[C@H](C2)N1C
GI50 (Malme-3M): 0.0562 µM (active) | GI50 (HCT-15): < 0.01 µM | GI50 (DLD-1): 0.0115 µM (active) | GI50 (IGROV-1): 0.0177 µM (active) | GI50 (OVCAR-4): 0.106 µM (active) | GI50 (MCF7): 0.0332 µM (active) | GI50 (K562): < 0.01 µM (active) | GI50 (RXF 393): 0.0184 µM (active) | GI50 (UACC-62): < 0.0208 µM (active) | GI50 (SK-MEL-28): 0.0713 µM (active) | GI50 (SF-295): 0.199 µM (active) | GI50 (EKVX): < 0.0405 µM (active) | GI50 (MOLT-4): 0.0286 µM (active) | GI50 (NCI-H522): < 0.01 µM (active) | GI50 (SNB-78): < 0.013 µM (active) | GI50 (RPMI-8226): < 0.0142 µM (active) | GI50 (NCI-H460): 0.107 µM (active) | GI50 (HOP-92): < 0.0119 µM (active)

CC1[C@@]2(O[C@@H]3C=C4C5CCC6Cc7nc8c(nc7C[C@@]6(C)C5C[C@H](O)[C@@]4(C)[C@]13O)CC1CCc3c(cc4c5c3C(O)C[C@H]5[C@@H](C)C3(O4)OC(C)(C)CC3O)[C@]1(C)C8)O[C@@](C)(CO)C[C@@H]2O (some centres undefined)
GI50 (Malme-3M): 0.22 µM (active) | GI50 (HCT-15): 0.914 µM | GI50 (DLD-1): 1.79 µM (inactive) | GI50 (IGROV-1): 0.345 µM (active) | GI50 (MCF7): 0.21 µM (active) | GI50 (K562): 0.259 µM (active) | GI50 (RXF 393): 0.0418 µM (active) | GI50 (UACC-62): 0.169 µM (active) | GI50 (SF-295): 0.06 µM (active) | GI50 (EKVX): 0.146 µM (active) | GI50 (NCI-H522): 0.745 µM (active) | GI50 (SNB-78): 0.183 µM (active) | GI50 (RPMI-8226): 0.0604 µM (active) | GI50 (NCI-H460): 0.126 µM (active)

C#CCNC(=O)CCC(N)C(=O)O (centres undefined)
GI50 (Malme-3M): > 100 µM (inactive) | GI50 (HCT-15): > 100 µM | GI50 (DLD-1): > 100 µM (inactive) | GI50 (IGROV-1): > 100 µM (inactive) | GI50 (OVCAR-4): > 100 µM (inactive) | GI50 (MCF7): > 100 µM (inactive) | GI50 (K562): > 100 µM (inactive) | GI50 (RXF 393): > 100 µM (inactive) | GI50 (UACC-62): > 100 µM (inactive) | GI50 (SK-MEL-28): > 100 µM (inactive) | GI50 (SF-295): > 100 µM (inactive) | GI50 (EKVX): > 100 µM (inactive) | GI50 (MOLT-4): > 100 µM (inactive) | GI50 (NCI-H522): > 100 µM (inactive) | GI50 (SNB-78): > 100 µM (inactive) | GI50 (RPMI-8226): > 100 µM (inactive) | GI50 (NCI-H460): > 100 µM (inactive) | GI50 (HOP-92): > 100 µM (inactive)

O=C(O)C(Br)Cc1ccc2c(c1)OCO2 (centres undefined)
GI50 (Malme-3M): 40.7 µM (inactive) | GI50 (HCT-15): > 100 µM | GI50 (DLD-1): > 100 µM (inactive) | GI50 (IGROV-1): > 100 µM (inactive) | GI50 (OVCAR-4): 88.7 µM (inactive) | GI50 (K562): > 100 µM (inactive) | GI50 (RXF 393): 71.9 µM (inactive) | GI50 (UACC-62): 62.1 µM (inactive) | GI50 (SK-MEL-28): > 100 µM (inactive) | GI50 (SF-295): 55.5 µM (inactive) | GI50 (EKVX): > 100 µM (inactive) | GI50 (ACHN): > 100 µM (inactive) | GI50 (MOLT-4): > 100 µM (inactive) | GI50 (NCI-H522): > 100 µM (inactive) | GI50 (SNB-78): > 100 µM (inactive) | GI50 (RPMI-8226): > 100 µM (inactive) | GI50 (SR): > 100 µM (inactive) | GI50 (NCI-H460): > 100 µM (inactive) | GI50 (HOP-92): > 100 µM (inactive)

CC1CC2C3CCC4=CC(=O)C=CC4(C)C3(F)C(O)CC2(C)C1(O)C(=O)COP(=O)(O)O (centres undefined)
GI50 (Malme-3M): > 100 µM (inactive) | GI50 (HCT-15): > 100 µM | GI50 (DLD-1): > 100 µM (inactive) | GI50 (IGROV-1): > 100 µM (inactive) | GI50 (OVCAR-4): > 100 µM (inactive) | GI50 (MCF7): > 100 µM (inactive) | GI50 (K562): > 100 µM (inactive) | GI50 (RXF 393): > 100 µM (inactive) | GI50 (UACC-62): > 100 µM (inactive) | GI50 (SK-MEL-28): > 100 µM (inactive) | GI50 (SF-295): > 100 µM (inactive) | GI50 (EKVX): > 100 µM (inactive) | GI50 (ACHN): > 100 µM (inactive) | GI50 (MOLT-4): > 62.7 µM (inactive) | GI50 (NCI-H522): > 100 µM (inactive) | GI50 (SNB-78): > 100 µM (inactive) | GI50 (RPMI-8226): 3.42 µM (inactive) | GI50 (SR): 46.6 µM (inactive) | GI50 (NCI-H460): > 100 µM (inactive) | GI50 (HOP-92): > 100 µM (inactive)
